pIC50: −log10 of the molar value. Where two headings read alike, the source gives them in different places. One block for each compound: values may come before it.
Experiments:
NF-κB = NF-κB luciferase reporter cellular assay (293T/NF-κB-luc, TNFα-stimulated); format: cell-based, human; settings: for inhibition of the activation of NF-κB by TNFα (screen): 10 μM, compared with curcumin; for pIC50: Homo sapiens, HEK-293T, inhibition of TNFα-induced NF-κB activation
Protocol: The cell line is derived from human 293T embryonic kidney cells expressing the large T antigen containing a chromosomal integration of a luciferase reporter construct regulated by 6 copies of the NF-κB response element (Panomics, Inc.). This stable clonal cell line is obtained by co-transfection of pNF-κB-luc and pTK-hyg containing plasmids followed by the addition of hygromycin (200 μg/ml) to maintain cell selection.
The cell line was grown in a humidified atmosphere at 37° C. in 5% CO2/95% air and maintained in Dulbecco's Modified Eagle's Medium (DMEM-high glucose containing 4 mM glutamine) containing fetal bovine serum (FBS, 10%), sodium pyruvate (1 mM), penicillin (100 units/ml), streptomycin (100 μg/ml) and hygromycin (100 μg/m) to maintain cell selection (Gibco/Invitrogen).
The 293T/NF-κB-luc cells were re-plated 24 hr prior to treatment, into 24-well cell culture plates in media without hygromycin, to prevent it from interfering with the assay. The cells were then allowed to grow and attach, to the wells, for 24 hr in a humidified atmosphere at 37° C. in 5% CO2/95% air. […] The cells then were placed again in a humidified atmosphere at 37° C. in 5% CO2/95% air for 7 hr. Plate wells were gently washed with PBS, pH 7.4, and lysed with passive lysis buffer (1×, 100 μl, Promega). The subsequent chemiluminescent lysates were analyzed with the Luciferase Assay System (Promega) utilizing a TD-20/20 luminometer. The relative light units (photons) were determined by the addition of firefly luciferase substrate (75 μl) to cell lysate (10 μl). The light units were then normalized to the amount of protein in the well (mg/ml) with BCA™ Protein Assay Kit (Pierce) and standardized to percent of control (TNFα).
This assay utilized a commercially available cell line (Panomics 293T-luc cellular assay) developed for screening inhibitors of NF-κB. This cell line is stably transfected with a luciferase reporter controlled by an NF-κB dependent promoter. The cell is stimulated with tumor necrosis factor alpha (TNFα) which activates NF-κB. NF-κB then binds to one of six promoter regions on the cell's DNA leading to the production of a luciferase enzyme. Luciferin is added to the cell lysates and the luciferase enzyme catalyzes a cleavage of luciferin leading to the emission of light.
This cell line was developed by Panomics for screening potential inhibitors of NF-κB. Cells are stimulated with TNF-α to express luciferase, whose activity is monitored in a chemiluminometer.
An NF-κB reporter stable cell line from human 293T embryonic kidney cells (293T/NFκB-luc) (Panomics) was grown in a humidified atmosphere at 37° C. in 5% CO2/95% air. The cells were maintained in Dulbecco's Modified Eagle's Medium (DMEM—high glucose containing 4 mM glutamine) supplemented with 10% fetal bovine serum (FBS), 1 mM sodium pyruvate, 100 units/ml penicillin, 100 μg/m streptomycin and 100 μg/ml hygromycin (Gibco/Invitrogen, Carlsbad, Calif.)) to maintain cell selection. One day prior to treatment, the 293T/NFκB-luc cells were plated into 24-well cell culture plates (Costar) at approximately 70% confluency in the above media without hygromycin. The following day cells were fed fresh media 1 hour prior to treatment. […] The cells were placed again in a humidified atmosphere at 37° C. in 5% CO2/95% air for 7 hours. Plate wells were gently washed with phosphate buffered saline, pH 7.4, and lysed with 1× passive lysis buffer (Promega). The subsequent lysates were analyzed with the Luciferase Assay System (Promega) utilizing a TD-20/20 luminometer (Turner Designs). The firefly luciferase relative light units were normalized to protein (mg/ml) with BCATM Protein Assay Kit (Pierce) and standardized to TNF-α control.

[1] = target: glutathione S-transferase P1-1 (Homo sapiens (Human), UniProt P09211); assay: GSTP1-1 enzyme inhibition assay (CDNB/GSH, 340 nm); format: biochemical; settings: 1 mM CDNB, 1 mM GSH, pH 6.5; compared with curcumin
Protocol: Kinetic analysis assays were conducted. […] GSTP1-1 activity was measured at pH 6.5 in 1 ml volumes of 20 mM potassium phosphate buffer containing 100 mM NaCl, 1 mM CDNB and 1 mM GSH. […] (Perkin/Elmer Lambda 2S spectrophotometer). These activities were plotted as percent of control (GSTP1-1 activity without inhibitors). Kinetic analysis (dissociation constants) of inhibitors was determined by linear regression analysis of the Dixon, plots. […] Ki's were calculated utilizing SigmaPlot's Enzyme Kinetics Module™ (Chicago, Ill., USA). […]
These activities were plotted as percent of control (GSTP1-1 activity without inhibitors).

AP-1 = AP-1 luciferase reporter cellular assay (293/AP1-luc, PMA-stimulated); format: cell-based, human; settings: for activity in the AP-1 cellular assay (screen): 15 μM, compared with curcumin; for pIC50: Homo sapiens, inhibition of PMA-induced AP-1 activation, 293/AP1-luc cells, Table 10, read-out: AP-1 IC50
Protocol: This cell line is obtained by co-transfection of pAP1-luc and pTK-hyg containing plasmids followed by the addition of hygromycin (200 μg/ml) to maintain cell selection.
After 24 hr, the cells had reached approximately 60% confluency. […] Plate wells were gently washed with PBS, pH 7.4, and lysed with passive lysis buffer (1×, 100 μl, Promega). The subsequent chemiluminescent lysates were analyzed with the Luciferase Assay System (Promega) utilizing a TD-20/20 luminometer. The relative light units (photons) were determined by the addition of firefly luciferase substrate (75 μl) to cell lysate (10 μl). The light units were then normalized to the amount of protein in the well (mg/ml) with BCA™ Protein Assay Kit (Pierce) and standardized to percent of control (PMA).
This cell line is stably transfected with a luciferase reporter controlled by an AP-1 dependent promoter. The cell is stimulated with phorbol ester which activates AP-1. AP-1 then binds to one of three promoter regions on the cells DNA leading to the production of a luciferase enzyme. Luciferin is added to the cell lysates and the luciferase enzyme catalyzes a cleavage of luciferin leading to the emission of light.

Aβ oligomers and fibrils = Aβ oligomers and fibrils (Homo sapiens (Human), UniProt P05067); settings: cited from earlier work
[2] = Reactivity toward L-cysteine as nucleophile (absorbance 425 nm); format: physicochemical; settings: 1 mM L-cysteine in sodium phosphate buffer, pH 7; read-out: t1/2 of absorbance quenching by L-cysteine
Protocol: Natural log values were determined based on 1st order kinetics.
Weber et al., (2005) Bioorg Med Chem 13, 3811-3820. These groups potentially serve as Michael acceptors which are chemically reactive and can form undesirable covalent modifications with biomolecules. Michael acceptors are generally thought to be poor drug compounds because of their high reactivity toward nucleophilies.
These groups potentially serve as Michael acceptors which are a chemically reactive species that can form undesirable covalent modifications with binding targets. […] Michael acceptors are generally thought to be poor drug compounds because of their high reactivity toward nucleophiles. […] In addition, at or below neutral pH, primary amino groups are predominantly in their protonated form and therefore weak nucleophiles that are unlikely to react to any significant extent with curcumin.

[3] = Total Radical-trapping Anti-oxidant Parameter assay (TRAP assay); settings: 10 μM in ethanol; compared with curcumin
Protocol: This assay is also known as the Total radical-trapping anti-oxidant parameter assay (TRAP assay). For the TRAP assay (Re et al., Free Rad. Biol. […] The turquoise colored reaction was allowed to stabilize for 5 min and the absorbance monitored on a Perkin Elmer UV/Vis Lambda 2S. […] The following FIGS. 2A-2C) show the analogs active in the TRAP assay.

[4] = Ferric Reducing/Anti-oxidant Power assay (FRAP assay); settings: 10 μM in ethanol; compared with curcumin
Protocol: Anti-oxidant activity was also measured in the Ferric reducing/anti-oxidant power assay (FRAP assay) in which the analogs are reacted with a ferric tripyridyltriazine complex. For the FRAP assay (Benzie et al., Meth. Enzymol. 1999, 299, 15-27), the ferric complex was prepared at room temperature by reaction of ferric chloride (16.7 mM) and 2,4,6-tripyridyl-s-triazine (8.33 mM) in acetate buffer (0.25 M) to pH 3.6. The FRAP reagent was used immediately after preparation. […] The reaction was mixed by vortexing, allowed to stabilize for 5 min and the absorbance recorded on a Perkin Elmer UV/Vis Lambda 2S. […] The synthetic analog of α-tocopherol (vitamin E), Trolox, was used as a reference standard (10 μM in ethanol).
The second assay used, the FRAP assay, determines the analogs abilities to reduce a Fe(III) tripyridyltriazine complex to a Fe(II) tripyridyltriazine complex. The following FIGS. 3A-3C) show analogs active in the FRAP assay.

Chain of Aβ oligomers and fibrils (P05067 672-711): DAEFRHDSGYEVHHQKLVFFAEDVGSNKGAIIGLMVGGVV
Chain of glutathione S-transferase P1-1 (P09211 2-210): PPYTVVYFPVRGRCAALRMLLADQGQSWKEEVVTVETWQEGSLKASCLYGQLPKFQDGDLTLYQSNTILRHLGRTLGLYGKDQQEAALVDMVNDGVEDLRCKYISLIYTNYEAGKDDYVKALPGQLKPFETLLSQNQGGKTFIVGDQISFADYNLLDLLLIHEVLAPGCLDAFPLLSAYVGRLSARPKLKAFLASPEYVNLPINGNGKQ

inhibition of the activation of NF-κB by TNFα (screen) (NF-κB): more active than curcumin | pIC50 (NF-κB; 293T/NF-κB-luc cells, Table 5, read-out: IC50): 5.47 | pIC50 (NF-κB; Table 10, read-out: NF-κB IC50): 5.47 | activity in the GSTP1-1 screening assay [1]: better inhibitory activity than curcumin | activity in the AP-1 cellular assay (screen) (AP-1): more active than curcumin | pIC50 (AP-1): 5.39
SMILES: O=C(/C=C/c1cccnc1)/C=C/c1cccnc1 [compound 31]

activity in the GSTP1-1 screening assay [1]: better inhibitory activity than curcumin
SMILES: O=C(/C=C/c1ccc(O)cc1)/C=C/c1ccc(O)cc1 [20f]

activity in the GSTP1-1 screening assay [1]: more active than curcumin
SMILES: O=C(/C=C(O)/C=C/c1ccccc1)/C=C/c1ccccc1 [3b]

activity in the GSTP1-1 screening assay [1]: better inhibitory activity than curcumin
SMILES: Cc1ccc(/C=C/C(=O)/C=C/c2ccc(C)cc2)cc1 [20aa]

SMILES: O=C(/C=C/c1ccccc1)/C=C/c1ccccc1 [20b]
activity in the GSTP1-1 screening assay [1]: better inhibitory activity than curcumin

inhibition of the activation of NF-κB by TNFα (screen) (NF-κB): more active than curcumin | activity in the GSTP1-1 screening assay [1]: better inhibitory activity than curcumin | activity in the AP-1 cellular assay (screen) (AP-1): more active than curcumin | pIC50 (AP-1): 5.09
SMILES: O=C(/C=C/c1ccncc1)/C=C/c1ccncc1 [compound 29]

activity in the GSTP1-1 screening assay [1]: more active than curcumin | activity in the AP-1 cellular assay (screen) (AP-1): active
SMILES: O=C(/C=C/c1ccccc1)/C(Cc1ccccc1)=C(O)/C=C/c1ccccc1 [9b]

activity in the GSTP1-1 screening assay [1]: better inhibitory activity than curcumin
SMILES: O=C(/C=C/c1ccc(Cl)cc1)/C=C/c1ccc(Cl)cc1 [20x]

SMILES: COc1cc(/C=C/C(=O)/C=C(O)/C=C/c2ccc(O)c(OC)c2)ccc1O [analog 3a, 1,7-Bis(4-hydroxy-3-methoxyphenyl)-1,6-heptadiene-3,5-dione]
IC50 for disaggregation of preformed fibrils (Aβ oligomers and fibrils; in vitro): 1.0 µM | IC50 for fibril inhibition (Aβ oligomers and fibrils; in vitro): 0.8 µM | IC50 for Aβ oligomerization reported by Yang, et al. (Aβ oligomers and fibrils; non-biotinylated Aβ(1-40)): ~1 µM | half-life at 20 μM [2]: 7.2 min

activity in the GSTP1-1 screening assay [1]: better inhibitory activity than curcumin
SMILES: O=C(/C=C/c1cccc(Cl)c1)/C=C/c1cccc(Cl)c1 [20y]

activity in the GSTP1-1 screening assay [1]: more active than curcumin
SMILES: COc1ccccc1/C=C/C(=O)/C=C(O)/C=C/c1ccccc1OC [3c]

activity in the GSTP1-1 screening assay [1]: more active than curcumin
SMILES: O=C(/C=C/c1ccccc1)C(Cc1ccccc1)(Cc1ccccc1)C(=O)/C=C/c1ccccc1 [12b]

activity in the GSTP1-1 screening assay [1]: better inhibitory activity than curcumin
SMILES: Cc1cccc(/C=C/C(=O)/C=C/c2cccc(C)c2)c1 [20ab]

activity in the GSTP1-1 screening assay [1]: more active than curcumin
SMILES: CC(C(=O)C=Cc1ccccc1)=C(O)C=Cc1ccccc1 [6b]

activity in the GSTP1-1 screening assay [1]: better inhibitory activity than curcumin
SMILES: O=C(/C=C/c1cccc(O)c1)/C=C/c1cccc(O)c1 [20p]

activity in the GSTP1-1 screening assay [1]: better inhibitory activity than curcumin
SMILES: O=C(/C=C/c1ccccc1Cl)/C=C/c1ccccc1Cl [20z]

inhibition of the activation of NF-κB by TNFα (screen) (NF-κB): more active than curcumin | activity in the AP-1 cellular assay (screen) (AP-1): most active
SMILES: COc1cc(/C=C/C(=O)c2ccc(O)c(OC)c2)ccc1O [45a]
activity in the TRAP assay [3]: more active than curcumin | activity in the FRAP assay [4]: active
